The values that follow come from patent US9957271B2, “Substituted bicyclic aza-heterocycles and analogues as sirtuin modulators” (GlaxoSmithKline, LLC, priority 2012, dated 2018).

Experiment [1] deals with T1, SIRT1 (Homo sapiens, UniProt Q96EB6).
T1 sequence (Q96EB6 1-747): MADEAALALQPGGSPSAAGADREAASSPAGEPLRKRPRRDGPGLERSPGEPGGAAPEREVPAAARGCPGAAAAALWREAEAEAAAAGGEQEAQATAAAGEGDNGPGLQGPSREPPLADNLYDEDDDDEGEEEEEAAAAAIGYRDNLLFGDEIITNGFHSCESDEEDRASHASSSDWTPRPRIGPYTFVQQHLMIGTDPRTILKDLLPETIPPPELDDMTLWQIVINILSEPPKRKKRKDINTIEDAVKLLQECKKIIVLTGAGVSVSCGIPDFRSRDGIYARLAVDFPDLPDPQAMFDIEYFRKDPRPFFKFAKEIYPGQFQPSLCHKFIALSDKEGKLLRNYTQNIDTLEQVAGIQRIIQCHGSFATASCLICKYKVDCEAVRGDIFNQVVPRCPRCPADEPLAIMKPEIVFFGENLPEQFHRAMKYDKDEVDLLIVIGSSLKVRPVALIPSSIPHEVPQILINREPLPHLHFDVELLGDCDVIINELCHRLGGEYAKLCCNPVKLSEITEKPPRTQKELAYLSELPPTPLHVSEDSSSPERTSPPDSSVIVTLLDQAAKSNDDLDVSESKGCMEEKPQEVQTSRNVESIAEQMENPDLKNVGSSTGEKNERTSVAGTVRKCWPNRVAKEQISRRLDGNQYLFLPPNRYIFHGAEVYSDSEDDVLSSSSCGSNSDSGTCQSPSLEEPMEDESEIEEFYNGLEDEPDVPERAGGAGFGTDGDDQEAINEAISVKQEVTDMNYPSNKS
Briefly: Trp mass spectrometry assay of SIRT1 activity. Type of experiment: biochemical. To be noted: Trp peptide substrate; for Trp EC1.5: concentration giving 150% activation of SIRT1; for Emax: percent maximum fold activation, read-out: Trp % Fold Act. In outline: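 His-tagged SIRT1 expressed in E. coli BL21(DE3), 10 nM, incubated 25 min at 25° C. with 0.5 μM Ac-RHKK(Ac)W-NH2 peptide and 120 μM βNAD+ in 50 mM HEPES pH 7.5, […], 1 mM DTT, 0.05% BSA; formic acid stop. OAADPR or deacetylated peptide measured by mass spectrometry; EC1.5 and percent maximum activation versus DMSO control.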

Experiment [2] deals with T1, SIRT1. Nature of the experiment: TAMRA based mass spectrometry assay of SIRT1 activity. To be noted: TAMRA peptide substrate; for TAMRA EC1.5: concentration giving 150% activation of SIRT1; for Emax: percent maximum fold activation, read-out: TAMRA % Fold Act. Type of experiment: biochemical. The procedure, abridged:
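Recombinant N-terminal His-tagged human SIRT1 (10 nM, E. coli) incubated 25 min at 25 °C with 0.5 μM 5TMR-labelled p53-derived acetyl-peptide and 120 μM βNAD+ in Tris-acetate pH 8 buffer with DTT and 0.05% BSA, compound at varying concentrations. Stopped with formic acid; deacetylated peptide or OAADPR measured by mass spectrometry relative to DMSO controls.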

As for `Cc1cc(NC(=O)c2cnc3ccc(-c4ccccc4OCC(O)CO)nn23)cc(C)n1` (stereo not drawn) [Compound 415], on SIRT1 [1], the “Trp EC1.5” value was “B (EC1.5 1-25 μM)” and the Emax was not below 350%. Moreover, on SIRT1 [2], the “TAMRA EC1.5” value is reported as “A (EC1.5<1 μM)” and the Emax was not below 350%.

Take `Cc1cc(NC(=O)c2cnc3ccc(-c4cccc(OCC(O)CO)c4)nn23)cc(C)n1` (stereo not drawn) [Compound 418]: at SIRT1 [1], the “Trp EC1.5” value is given as “C (EC1.5>25 μM)” and the Emax was less than 350%. On SIRT1 [2], the “TAMRA EC1.5” value is listed as “B (EC1.5 1-25 μM)” and the Emax is less than 350%.

Take `Cc1cc(NC(=O)c2cnc3ccc(-c4ccccc4OC(F)(F)F)nn23)cc(C)n1` [Compound 419]: at SIRT1 [1], the “Trp EC1.5” value is reported as “A (EC1.5<1 μM)” and the Emax was not below 350%. On SIRT1 [2], the “TAMRA EC1.5” value was “A (EC1.5<1 μM)” and the Emax is not below 350%.

Consider `Cc1c(-c2ccccc2C(F)(F)F)nn2c(NC(=O)c3cccc(N4CCCC4)n3)cnc2c1C` [Compound 421], for which, on SIRT1 [1], the “Trp EC1.5” value is on record as “A (EC1.5<1 μM)” and the Emax is not below 350%. Further, on SIRT1 [2], the “TAMRA EC1.5” value is “A (EC1.5<1 μM)” and the Emax is not below 350%.

Consider `Cc1cnc(C(=O)Nc2cnc3c(C)cc(-c4ccccc4C(F)(F)F)nn23)s1` [Compound 424], for which, at SIRT1 [1], the “Trp EC1.5” value is “B (EC1.5 1-25 μM)” and the Emax was less than 350%. On SIRT1 [2], the “TAMRA EC1.5” value is given as “A (EC1.5<1 μM)” and the Emax is not below 350%.

Turning to `Cc1cc(-c2ccccc2C(F)(F)F)nn2c(NC(=O)c3cccc(N4CCOCC4)n3)cnc12` [Compound 425], on SIRT1 [1], the “Trp EC1.5” value was “A (EC1.5<1 μM)” and the Emax is not below 350%. Also, on SIRT1 [2], the “TAMRA EC1.5” value was “A (EC1.5<1 μM)” and the Emax was not below 350%.

`Cc1cc(-c2ccccc2C(F)(F)F)nn2c(NC(=O)c3cccc(OCC(O)CO)n3)cnc12` (stereo not drawn) [Compound 427]: at SIRT1 [1], the “Trp EC1.5” value was “A (EC1.5<1 μM)” and the Emax is not below 350%. At SIRT1 [2], the “TAMRA EC1.5” value is on record as “A (EC1.5<1 μM)” and the Emax is not below 350%.

In the case of `Cc1nc2c(C)cc(-c3ccccc3C(F)(F)F)nn2c1C(=O)Nc1cccnn1` [Compound 428, 2,8-dimethyl-N-(pyridazin-3-yl)-6-(2-(trifluoromethyl)phenyl)imidazo[1,2-b]pyridazine-3-carboxamide], at SIRT1 [1], the “Trp EC1.5” value is reported as “A (EC1.5<1 μM)” and the Emax was not below 350%. Further, at SIRT1 [2], the “TAMRA EC1.5” value is reported as “A (EC1.5<1 μM)” and the Emax is not below 350%.

Turning to `COc1nccc(NC(=O)c2cnc3ccc(-c4ccccc4OC(F)(F)F)nn23)n1` [Compound 430], on SIRT1 [1], the “Trp EC1.5” value is “A (EC1.5<1 μM)” and the Emax was not below 350%. Moreover, on SIRT1 [2], the “TAMRA EC1.5” value is on record as “A (EC1.5<1 μM)” and the Emax was not below 350%.

Take `Cc1cccc(NC(=O)c2cnc3ccc(-c4ccccc4OC(F)(F)F)nn23)n1` [Compound 431]: at SIRT1 [1], the “Trp EC1.5” value was “B (EC1.5 1-25 μM)” and the Emax is less than 350%. For the same molecule, at SIRT1 [2], the “TAMRA EC1.5” value is reported as “A (EC1.5<1 μM)” and the Emax is not below 350%.

Turning to `Cc1nc(C(=O)Nc2cnc3cc(C)c(-c4ccccc4C(F)(F)F)nn23)cs1` [Compound 433], on SIRT1 [1], the “Trp EC1.5” value is recorded as “C (EC1.5>25 μM)” and the Emax was less than 350%. In addition, on SIRT1 [2], the “TAMRA EC1.5” value was “A (EC1.5<1 μM)” and the Emax is not below 350%.

Regarding `Cc1cc(C)nc(C(=O)Nc2cnc3ccc(-c4ccccc4C(F)(F)F)nn23)c1` [Compound 436], on SIRT1 [1], the “Trp EC1.5” value is “C (EC1.5>25 μM)” and the Emax is less than 350%. On SIRT1 [2], the “TAMRA EC1.5” value is listed as “A (EC1.5<1 μM)” and the Emax is not below 350%.

For the molecule `COc1cccc(C(=O)Nc2cnc3ccc(-c4ccccc4C(F)(F)F)nn23)n1` [Compound 437], at SIRT1 [1], the “Trp EC1.5” value is “A (EC1.5<1 μM)” and the Emax is not below 350%. On SIRT1 [2], the “TAMRA EC1.5” value was “A (EC1.5<1 μM)” and the Emax is not below 350%.

On to `O=C(Nc1cnc2ccc(-c3ccccc3C(F)(F)F)nn12)c1ncccc1F` [Compound 439], for which, on SIRT1 [1], the “Trp EC1.5” value is “A (EC1.5<1 μM)” and the Emax is less than 350%. At SIRT1 [2], the “TAMRA EC1.5” value is listed as “A (EC1.5<1 μM)” and the Emax was not below 350%.

With `Cc1cc2ncc(NC(=O)c3cnccn3)n2nc1-c1ccccc1C(F)(F)F` [Compound 442], on SIRT1 [1], the “Trp EC1.5” value is listed as “C (EC1.5>25 μM)” and the Emax is less than 350%. Further, on SIRT1 [2], the “TAMRA EC1.5” value is “A (EC1.5<1 μM)” and the Emax was not below 350%.

On to `Cc1cc2ncc(NC(=O)c3ccncn3)n2nc1-c1ccccc1C(F)(F)F` [Compound 443], for which, at SIRT1 [1], the “Trp EC1.5” value is “C (EC1.5>25 μM)” and the Emax was less than 350%. In addition, at SIRT1 [2], the “TAMRA EC1.5” value is reported as “A (EC1.5<1 μM)” and the Emax is not below 350%.

Turning to `Cc1nc(C(=O)Nc2cnc3cc(C)c(-c4ccccc4C(F)(F)F)nn23)c(C)s1` [Compound 445], on SIRT1 [1], the “Trp EC1.5” value was “B (EC1.5 1-25 μM)” and the Emax is less than 350%. On SIRT1 [2], the “TAMRA EC1.5” value is recorded as “A (EC1.5<1 μM)” and the Emax was not below 350%.

On to `Cc1cc2ncc(NC(=O)c3cccc(N4CCC4)n3)n2nc1-c1ccccc1C(F)(F)F` [Compound 448], for which, at SIRT1 [1], the “Trp EC1.5” value is reported as “B (EC1.5 1-25 μM)” and the Emax was not below 350%. For the same molecule, on SIRT1 [2], the “TAMRA EC1.5” value is reported as “A (EC1.5<1 μM)” and the Emax is not below 350%.

As to `Cc1cc2ncc(NC(=O)c3cccc(OCC(O)CO)n3)n2nc1-c1ccccc1C(F)(F)F` (stereo not drawn) [Compound 449], on SIRT1 [1], the “Trp EC1.5” value is listed as “A (EC1.5<1 μM)” and the Emax was not below 350%. For the same molecule, on SIRT1 [2], the “TAMRA EC1.5” value is “A (EC1.5<1 μM)” and the Emax is not below 350%.

For the molecule `O=C(Nc1cccnc1)c1ncn2ccc(-c3ccccc3C(F)(F)F)nc12` [Compound 451, N-(pyridin-3-yl)-2-(2-(trifluoromethyl)phenyl)imidazo[1,5-a]pyrimidine-8-carboxamide], at SIRT1 [1], the “Trp EC1.5” value is “B (EC1.5 1-25 μM)” and the Emax was not below 350%. On SIRT1 [2], the “TAMRA EC1.5” value is reported as “B (EC1.5 1-25 μM)” and the Emax is not below 350%.

As to `O=C(Nc1cccc(N2CCOCC2)n1)c1ncn2ccc(-c3ccccc3C(F)(F)F)nc12` [Compound 454], on SIRT1 [1], the “Trp EC1.5” value is on record as “A (EC1.5<1 μM)” and the Emax is not below 350%. Also, on SIRT1 [2], the “TAMRA EC1.5” value is on record as “A (EC1.5<1 μM)” and the Emax is not below 350%.

With `O=C(Nc1ncn2ccc(-c3ccccc3C(F)(F)F)nc12)c1ccccn1` [Compound 455, N-(2-(2-(trifluoromethyl)phenyl)imidazo[1,5-a]pyrimidin-8-yl)picolinamide], on SIRT1 [1], the “Trp EC1.5” value was “C (EC1.5>25 μM)” and the Emax was less than 350%. For the same molecule, on SIRT1 [2], the “TAMRA EC1.5” value was “B (EC1.5 1-25 μM)” and the Emax was less than 350%.

`Cc1nc(NC(=O)c2c(C)nc3c(C)cc(-c4ccccc4C(F)(F)F)nn23)sc1C` [Compound 457]: at SIRT1 [1], the “Trp EC1.5” value was “A (EC1.5<1 μM)” and the Emax is less than 350%. On SIRT1 [2], the “TAMRA EC1.5” value is “A (EC1.5<1 μM)” and the Emax was not below 350%.

On to `Cc1nc2c(C)cc(-c3ccccc3C(F)(F)F)nn2c1C(=O)Nc1ccncn1` [Compound 460], for which, at SIRT1 [1], the “Trp EC1.5” value is recorded as “A (EC1.5<1 μM)” and the Emax is not below 350%. Further, at SIRT1 [2], the “TAMRA EC1.5” value is reported as “A (EC1.5<1 μM)” and the Emax is not below 350%.
